Measurements published in ChEMBL document CHEMBL5154693, “N-Methylpropargylamine-Conjugated Hydroxamic Acids as Dual Inhibitors of Monoamine Oxidase A and Histone Deacetylase for Glioma Treatment” (J Med Chem, 2022).
Activity calls are given as the source filed them. The rule behind the calls is not given here.

Key:
[1] = Cytotoxicity against mouse GL26 cells assessed as inhibition of cell growth incubated for 48 hrs by MTT assay; assay type: functional, cell-based; settings: GL26, 48 h
[2] = molecular target: Histone deacetylase 2 (Homo sapiens, UniProt Q92769); test: Inhibition of human HDAC2 (379 to 382 residues) using RHKKAc-AMC fluorogenic peptide as substrate by fluorescence assay
[3] = molecular target: T1, Protein deacetylase HDAC6 (Homo sapiens, UniProt Q9UBN7); test: Inhibition of human HDAC6 (379 to 382 residues) using RHKKAc fluorogenic peptide as substrate by fluorescence assay
T1 sequence (Q9UBN7 whole entry): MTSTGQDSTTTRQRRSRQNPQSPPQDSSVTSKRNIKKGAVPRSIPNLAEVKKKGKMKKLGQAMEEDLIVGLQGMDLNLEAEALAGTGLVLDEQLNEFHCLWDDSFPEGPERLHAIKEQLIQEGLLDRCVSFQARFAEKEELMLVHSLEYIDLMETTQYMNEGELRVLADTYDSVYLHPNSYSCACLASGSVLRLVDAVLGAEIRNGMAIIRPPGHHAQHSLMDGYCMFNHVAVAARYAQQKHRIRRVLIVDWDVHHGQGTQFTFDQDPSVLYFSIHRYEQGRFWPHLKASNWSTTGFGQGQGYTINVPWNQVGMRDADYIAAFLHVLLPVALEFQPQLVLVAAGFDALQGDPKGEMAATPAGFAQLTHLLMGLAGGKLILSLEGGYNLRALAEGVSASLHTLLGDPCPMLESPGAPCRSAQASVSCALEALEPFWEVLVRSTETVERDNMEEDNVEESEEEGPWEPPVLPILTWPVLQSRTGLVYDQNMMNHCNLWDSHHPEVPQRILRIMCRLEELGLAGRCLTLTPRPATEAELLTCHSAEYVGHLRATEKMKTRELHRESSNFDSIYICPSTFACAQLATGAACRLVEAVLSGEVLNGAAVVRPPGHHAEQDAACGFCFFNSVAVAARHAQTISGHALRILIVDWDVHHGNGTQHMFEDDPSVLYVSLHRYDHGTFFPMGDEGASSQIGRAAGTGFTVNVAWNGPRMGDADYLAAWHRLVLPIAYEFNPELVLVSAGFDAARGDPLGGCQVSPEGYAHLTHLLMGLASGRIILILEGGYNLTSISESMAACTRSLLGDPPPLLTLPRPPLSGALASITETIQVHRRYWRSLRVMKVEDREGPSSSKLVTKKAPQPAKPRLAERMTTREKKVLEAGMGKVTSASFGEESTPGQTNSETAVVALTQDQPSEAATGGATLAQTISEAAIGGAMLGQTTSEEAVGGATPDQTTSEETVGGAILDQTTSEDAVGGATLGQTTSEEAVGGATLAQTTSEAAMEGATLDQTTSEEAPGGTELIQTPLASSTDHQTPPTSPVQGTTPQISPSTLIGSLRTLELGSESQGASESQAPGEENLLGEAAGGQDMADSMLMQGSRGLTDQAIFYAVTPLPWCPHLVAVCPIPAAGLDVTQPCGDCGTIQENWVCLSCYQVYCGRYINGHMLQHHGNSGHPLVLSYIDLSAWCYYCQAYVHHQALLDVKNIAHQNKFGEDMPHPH

[4] = molecular target: T2, Histone deacetylase 8 (Homo sapiens, UniProt Q9BY41); test: Inhibition of human HDAC8 (379 to 382 residues) using RHKKAcKAc-AMC fluorogenic peptide as substrate by fluorescence assay
T2 sequence (Q9BY41 whole entry): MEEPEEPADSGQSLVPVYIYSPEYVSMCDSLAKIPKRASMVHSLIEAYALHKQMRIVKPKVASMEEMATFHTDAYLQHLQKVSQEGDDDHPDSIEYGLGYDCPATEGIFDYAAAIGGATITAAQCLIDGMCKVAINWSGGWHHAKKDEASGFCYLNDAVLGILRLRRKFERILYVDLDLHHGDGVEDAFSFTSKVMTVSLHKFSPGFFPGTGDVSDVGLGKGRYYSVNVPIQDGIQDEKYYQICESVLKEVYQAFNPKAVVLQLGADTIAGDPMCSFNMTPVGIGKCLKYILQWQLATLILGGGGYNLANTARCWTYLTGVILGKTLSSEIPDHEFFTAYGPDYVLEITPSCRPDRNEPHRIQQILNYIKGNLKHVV

[5] = molecular target: T3, Amine oxidase [flavin-containing] A (Homo sapiens, UniProt P21397); test: Inhibition of MAO-A (unknown origin) expressed in mouse GL26 cells using 14C 5-hydroxytryptamine as substrate pre-incubated for 20 mins followed by substrate addition measured after 20 mins by liquid scintillation spectroscopy; assay type: cell-based
T3 sequence (P21397 whole entry): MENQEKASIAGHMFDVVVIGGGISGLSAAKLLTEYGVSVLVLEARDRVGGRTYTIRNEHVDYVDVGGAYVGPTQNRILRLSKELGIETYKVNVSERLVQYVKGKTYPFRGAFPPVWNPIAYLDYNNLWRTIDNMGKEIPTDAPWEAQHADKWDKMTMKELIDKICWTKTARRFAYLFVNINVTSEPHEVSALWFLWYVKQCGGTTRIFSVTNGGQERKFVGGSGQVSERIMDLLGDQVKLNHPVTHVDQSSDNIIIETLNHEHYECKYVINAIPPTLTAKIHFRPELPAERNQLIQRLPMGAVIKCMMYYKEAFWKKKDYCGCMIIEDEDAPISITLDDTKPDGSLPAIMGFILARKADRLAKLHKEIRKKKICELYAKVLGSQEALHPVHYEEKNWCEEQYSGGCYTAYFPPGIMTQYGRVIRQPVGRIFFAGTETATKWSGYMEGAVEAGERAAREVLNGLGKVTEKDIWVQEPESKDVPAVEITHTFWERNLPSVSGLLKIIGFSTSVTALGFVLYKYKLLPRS

[6] = test system: U-251; test: cells; assay type: functional, cell-based; settings: Homo sapiens, U-251, 48 h
Description: Cytotoxicity against human TMZ-resistant U251 cells assessed as inhibition of cell growth incubated for 48 hrs by MTT assay

[7] = molecular target: Histone deacetylase 1 (Homo sapiens, UniProt Q13547); test: Inhibition of human HDAC1 (379 to 382 residues) using RHKKAc-AMC fluorogenic peptide as substrate by fluorescence assay
[8] = test system: U-251; test: cells; assay type: functional, cell-based; settings: Homo sapiens, U-251, 48 h; remark: listed apart in the source
Description: Cytotoxicity against human TMZ-sensitive U251 cells assessed as inhibition of cell growth incubated for 48 hrs by MTT assay

[9] = test system: GL26; test: Antitumor activity against mouse GL26 cells implanted in C57BL6 mouse assessed as reduction in tumor size at 50 mg/kg, ip daily measured for 10 days by bioluminescence assay; assay type: functional, organism-based; settings: time 10.0 day
[10] = Toxicity in mouse bearing intracranial tumor assessed as assessed as median survival time at 50 mg/kg, ip for 14 days treatment started at 5 days post-infection (Rvb=12.8 days); assay type: organism-based; settings: in vivo, 336 h, time 14 day
[11] = molecular target: Lysine-specific histone demethylase 1A (Homo sapiens, UniProt O60341); test: Inhibition of human LSD1 assessed as demethylase activity of LSD1 using Histone H3(1-21)K4me2 peptide as substrate incubated for 30 mins followed by substrate addition by amplex red dye based HRP-coupled assay
[12] = test system: Mus musculus; test: In vivo inhibition of MAO-A in mouse xenografted with mouse GL26 assessed as decrease in MAO activity in brain at 25 mg/kg, ip administered for 10 days by bioluminescence assay; assay type: functional, organism-based; settings: time 10.0 day
[13] = test system: U-251; test: Cytotoxicity against human U251 cells assessed as inhibition of cell growth incubated for 48 hrs by MTT assay; assay type: functional, cell-based; settings: DDE = dose-dependent effect
[14] = test system: Mus musculus; test: In vivo inhibition of MAO-A in mouse xenografted with mouse GL26 assessed as decrease in MAO activity in tumor at 25 mg/kg, ip administered for 10 days by bioluminescence assay; assay type: functional, organism-based; settings: time 10.0 day
[15] = Toxicity in C57BL6 mouse xenografted with mouse GL26 cells as assessed as last day of survival at 50 mg/kg, ip for 14 days treatment started at 5 days post-infection (Rvb=14 days); assay type: organism-based; settings: in vivo, 336 h, time 14 day
[16] = (§1) In vivo inhibition of MAO-A in mouse xenografted with mouse GL26 assessed as decrease in MAO activity in tumor at 50 mg/kg by radiometric analysis; assay type: functional; set-up: scale not given: the % may be the effect or the level left
[17] = Toxicity in mouse bearing intracranial tumor assessed as last day of survival at 50 mg/kg,ip for 10 days (Rvb=16 days); assay type: organism-based; settings: in vivo, 240 h, time 10 day
[18] = Toxicity in mouse bearing intracranial tumor assessed as assessed as median survival time at 25 mg/kg, ip treatment started at 7 dpi (Rvb=18.25 days); assay type: organism-based; settings: in vivo, 438 h
[19] = test system: Mus musculus; test: In vivo inhibition of MAO-A in C57BL6 mouse xenografted with mouse GL26 cells as decrease in MAO activity in brain at 50 mg/kg, ip by radiometric analysis; assay type: functional, organism-based
[20] = Toxicity in mouse bearing intracranial tumor assessed as median survival time at 50 mg/kg, ip for 10 days (Rvb= 13.8 days); assay type: organism-based; settings: in vivo, 240 h, time 10 day
[21] = Toxicity in mouse bearing intracranial tumor assessed as last day of survival at 25 mg/kg, ip treatment started at 7 dpi (Rvb=19 days); assay type: organism-based; settings: in vivo, 456 h
[22] = Toxicity in mouse bearing intracranial tumor assessed as last day of survival at 25 mg/kg, ip in presence of clorgyline for 10 days (Rvb=16 days); assay type: organism-based; settings: in vivo, 240 h, time 10 day
[23] = Toxicity in mouse bearing intracranial tumor assessed as median survival time at 50 mg/kg, ip in presence of clorgyline for 10 days (Rvb=13.8 days); assay type: organism-based; settings: in vivo, 240 h, time 10 day
[24] = Toxicity in mouse bearing intracranial tumor assessed as median survival time at 25 mg/kg, ip in presence of clorgyline for 10 days (Rvb=13.8 days); assay type: organism-based; settings: in vivo, 240 h, time 10 day
[25] = Toxicity in mouse bearing intracranial tumor assessed as last day of survival at 50 mg/kg, ip in presence of clorgyline for 10 days (Rvb=16 days); assay type: organism-based; settings: in vivo, 240 h, time 10 day
[26] = test system: GL26; test: Induction of apoptosis in mouse GL26 cells assessed as proteolytic cleavage of PARP1 incubated for 48 hrs by Western blot analysis; assay type: functional, cell-based; settings: dose 1.25-5 µM, DDE = dose-dependent effect
[27] = test system: Mus musculus; test: as §1; assay type: functional

Sequence of Histone deacetylase 1 (Q13547 whole entry, the tested form may be a part): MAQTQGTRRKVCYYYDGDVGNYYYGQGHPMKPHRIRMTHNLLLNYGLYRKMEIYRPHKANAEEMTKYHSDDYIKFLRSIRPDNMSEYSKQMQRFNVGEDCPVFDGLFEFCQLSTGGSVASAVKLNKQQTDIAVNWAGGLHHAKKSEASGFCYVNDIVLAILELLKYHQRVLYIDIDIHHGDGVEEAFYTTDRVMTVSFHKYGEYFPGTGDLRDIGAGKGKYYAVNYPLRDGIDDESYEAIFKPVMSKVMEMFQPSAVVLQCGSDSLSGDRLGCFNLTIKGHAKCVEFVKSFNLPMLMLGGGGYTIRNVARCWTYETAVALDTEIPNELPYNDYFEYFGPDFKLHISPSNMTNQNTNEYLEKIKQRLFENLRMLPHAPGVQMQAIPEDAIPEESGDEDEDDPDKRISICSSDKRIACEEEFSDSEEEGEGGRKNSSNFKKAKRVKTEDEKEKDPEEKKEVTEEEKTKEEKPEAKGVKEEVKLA
Sequence of Histone deacetylase 2 (Q92769 whole entry, the tested form may be a part): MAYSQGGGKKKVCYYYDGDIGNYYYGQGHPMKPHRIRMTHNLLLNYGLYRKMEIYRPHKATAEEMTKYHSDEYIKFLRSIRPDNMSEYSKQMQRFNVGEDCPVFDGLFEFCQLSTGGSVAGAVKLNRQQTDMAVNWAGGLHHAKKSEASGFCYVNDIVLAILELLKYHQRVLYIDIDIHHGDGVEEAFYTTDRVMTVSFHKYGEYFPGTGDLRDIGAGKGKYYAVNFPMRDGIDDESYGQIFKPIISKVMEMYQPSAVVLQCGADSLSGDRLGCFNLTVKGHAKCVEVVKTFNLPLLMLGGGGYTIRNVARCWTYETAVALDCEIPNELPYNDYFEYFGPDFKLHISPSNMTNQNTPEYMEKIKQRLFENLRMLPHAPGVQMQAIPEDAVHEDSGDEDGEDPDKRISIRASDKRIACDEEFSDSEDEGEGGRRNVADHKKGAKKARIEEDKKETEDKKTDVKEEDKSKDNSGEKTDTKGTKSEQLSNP

SMILES	IC50 [2]	IC50 [3]	IC50 [4]	IC50 [5]	IC50 [6]	IC50 [7]	IC50 [8]	IC50 [1]	Survival [20]	also measured
C#CCN(C)CCCOc1cc(NC(=O)CCCCCCC(=O)NO)c(Cl)cc1Cl	6680 nM	60 nM	1780 nM	430 nM	8670 nM	3290 nM	50600 nM	74000 nM		
C#CCN(C)CCCOc1cc(NCc2ccc(C(=O)NO)cc2)ccc1Cl	4750 nM	10 nM	1170 nM	0.4 nM	7120 nM	2510 nM	10100 nM	2410 nM	16.8 days	Activity [9]: Active; MST [10]: 14.25 days; EC50 [11]: 6000 nM; Activity [12]: Active; Activity [13]: Dde; Activity [14]: Active; Survival [15]: 18 days; Activity [16]: 90%; Survival [17]: 20 days; MST [18]: 19.75 days; Activity [19]: Active; Survival [21]: 23 days
C#CCN(C)CCCOc1cccc(NC(=O)CCCCCCC(=O)NO)c1Cl	3210 nM	90 nM	1470 nM	23300 nM	4090 nM	890 nM	5820 nM	1740 nM		
O=C(CCCCCCC(=O)Nc1ccccc1)NO [VORINOSTAT]								2200 nM	13.8 days	Survival [22]: 14 days; MST [23]: 14.4 days; MST [24]: 13.8 days; Survival [25]: 18 days; Activity [26]: Dde
C#CCN(C)CCCOc1cc(NC(=O)CCCCCCCCC(=O)NO)ccc1Cl	3630 nM	160 nM	2480 nM	< 0.1 nM	16200 nM	1420 nM	33200 nM	1040 nM	14.8 days	Activity [9]: Active; MST [10]: 14.5 days; Activity [12]: Active; Activity [14]: Active; Survival [15]: 16 days; Activity [27]: Active; MST [18]: 18 days; Activity [19]: Active; Survival [21]: 21 days

Second part, led by results:

IC50 [2]	IC50 [3]	IC50 [4]	IC50 [5]	IC50 [6]	IC50 [7]	IC50 [8]	SMILES	IC50 [1]	Survival [20]	also measured
4180 nM	80 nM	1120 nM	20 nM	4780 nM	2310 nM	11500 nM	C#CCN(C)CCCOc1cc(NC(=O)CCCCCCCC(=O)NO)ccc1Cl	19300 nM		
150 nM	10 nM	50 nM	3250 nM	600 nM	30 nM	120 nM	C#CCN(C)CCCOc1cc(NC(=O)CCCCCCC(=O)NO)ccc1Cl	1150 nM		
